Results on four molecules are retold here after publication PMC3172300, “Modulation of Catalytic Activity in Multi-Domain Protein Tyrosine Phosphatases” (PLoS ONE, 2011).

One experiment concerns the target T1, DLAR D1D2 (Drosophila melanogaster, UniProt P16621).
T1 construct: DLAR 1448-2029; His tag (pET-15b or pET-22b); made in house; host or cells: E. coli BL21(DE3)
T1 sequence (P16621 1448-2029): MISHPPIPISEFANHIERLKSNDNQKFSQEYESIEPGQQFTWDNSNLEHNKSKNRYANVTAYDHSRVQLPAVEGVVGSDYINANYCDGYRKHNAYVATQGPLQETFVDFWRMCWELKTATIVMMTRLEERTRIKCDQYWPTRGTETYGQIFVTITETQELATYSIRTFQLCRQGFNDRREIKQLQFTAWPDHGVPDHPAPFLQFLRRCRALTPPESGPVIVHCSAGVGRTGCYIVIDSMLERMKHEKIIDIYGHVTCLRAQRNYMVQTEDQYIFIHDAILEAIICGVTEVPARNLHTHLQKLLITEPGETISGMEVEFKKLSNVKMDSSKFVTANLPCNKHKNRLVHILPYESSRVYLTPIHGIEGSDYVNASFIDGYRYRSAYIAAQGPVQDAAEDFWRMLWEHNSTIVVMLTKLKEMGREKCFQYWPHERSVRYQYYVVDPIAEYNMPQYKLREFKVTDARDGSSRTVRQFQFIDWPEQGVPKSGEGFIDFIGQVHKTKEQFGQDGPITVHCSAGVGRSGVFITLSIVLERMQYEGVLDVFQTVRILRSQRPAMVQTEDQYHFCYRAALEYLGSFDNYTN
As to the kind of experiment: Dephosphorylation of phosphotyrosine peptides (malachite green), DLAR D1D2. In kind it is biochemical. The settings on record: for Km / Vmax / Kcat / Kcat/Km: 0.01 µM protein; for Km / Kcat / Kcat/Km: 25 mM citrate pH 6.0, 15 min at 25°C, malachite green; for Vmax: 25 mM citrate buffer pH 6.0, 100 mM NaCl, 2 mM DTT, 15 min at 25°C, Biomol Green, 650 nm, Michaelis-Menten fit; for substrate preference: order of peptide substrates, DLAR D1D2. An excerpt: (§1) Substrates of PTPs characterized thus far include the activation loop segments of various kinases and regulatory loops of other signaling proteins. Suitably designed peptide substrates mimic the physiologically relevant substrates of PTPs. In the present study, peptide substrates were designed for DLAR for which more information was available on its interacting partners. […] The five peptides were chosen based on their distinct charge distributions around the central phosphotyrosine residue. The phosphorylated as well as non-phosphorylated peptides were obtained from GL Bioscience, China. The peptides were >95% pure and were used after a single round of desalting using a Sephadex G25 column (GE Healthcare). The concentration of the peptide samples for biochemical studies was ascertained by UV absorption at 268 nm for the pY residue.
(§2) Phosphatase activity of the recombinant PTP domains was determined by using para-Nitrophenylphosphate (pNPP), a small molecule generic substrate, as well as phosphotyrosine containing peptides. The pNPP assay was performed as reported previously, with a modification in the buffer composition (25 mM Citrate, Glycine and HEPES (CGH), pH 6.5, 100 mM NaCl and 2 mM DTT). Phosphatase activity with the phosphotyrosine peptides was ascertained by the malachite green reaction as described for PTPs previously. Briefly, the reaction mixture comprised of 0.01 µM protein incubated with increasing concentrations of different peptides in 25 mM citrate buffer pH 6.0, 100 mM NaCl and 2 mM DTT for 15 min at 25°C. The reaction was stopped by the addition of the Biomol Green reagent (Enzo Life Sciences) and the colour developed after 20 min was quantified at 650 nm. For all the assays, kinetic constants for the steady state catalysis were obtained by fitting the reaction curves to the Michaelis-Menten equation using the nonlinear regression module of Sigma plot software (Systat Software, Inc.).

A further experiment deals with T2, DLAR D1 D2HSS (Drosophila melanogaster, UniProt P16621, C1961S).
T2 construct: DLAR 1448-2029; His tag (pET-15b or pET-22b); made in house; host or cells: E. coli BL21(DE3)
T2 sequence (P16621 1448-2029 C1961S): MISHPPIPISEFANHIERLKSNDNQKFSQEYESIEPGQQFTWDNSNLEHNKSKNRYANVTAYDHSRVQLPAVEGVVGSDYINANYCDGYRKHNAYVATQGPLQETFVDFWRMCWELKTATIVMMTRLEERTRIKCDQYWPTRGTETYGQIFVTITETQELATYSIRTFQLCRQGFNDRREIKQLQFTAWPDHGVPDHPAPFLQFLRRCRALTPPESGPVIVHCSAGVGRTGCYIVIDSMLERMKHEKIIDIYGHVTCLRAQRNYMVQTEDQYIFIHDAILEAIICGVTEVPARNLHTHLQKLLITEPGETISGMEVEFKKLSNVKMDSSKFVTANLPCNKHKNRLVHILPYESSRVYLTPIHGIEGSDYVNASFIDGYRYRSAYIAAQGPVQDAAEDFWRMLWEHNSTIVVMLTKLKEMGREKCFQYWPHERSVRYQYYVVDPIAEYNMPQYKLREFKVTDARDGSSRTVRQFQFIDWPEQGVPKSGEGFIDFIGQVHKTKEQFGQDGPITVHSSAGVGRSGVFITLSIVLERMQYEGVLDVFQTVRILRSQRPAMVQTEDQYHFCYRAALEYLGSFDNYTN
The experiment is classed as biochemical. The settings on record: 0.01 µM protein; for Km / Kcat / Kcat/Km: 25 mM citrate pH 6.0, 15 min at 25°C, malachite green; for Vmax: 25 mM citrate buffer pH 6.0, 100 mM NaCl, 2 mM DTT, 15 min at 25°C, Biomol Green, 650 nm, Michaelis-Menten fit.
Description: as §1, §2

Another experiment has as its target T3, PTP99A D1D2 (Drosophila melanogaster, UniProt P35832).
T3 sequence (P35832 450-1050): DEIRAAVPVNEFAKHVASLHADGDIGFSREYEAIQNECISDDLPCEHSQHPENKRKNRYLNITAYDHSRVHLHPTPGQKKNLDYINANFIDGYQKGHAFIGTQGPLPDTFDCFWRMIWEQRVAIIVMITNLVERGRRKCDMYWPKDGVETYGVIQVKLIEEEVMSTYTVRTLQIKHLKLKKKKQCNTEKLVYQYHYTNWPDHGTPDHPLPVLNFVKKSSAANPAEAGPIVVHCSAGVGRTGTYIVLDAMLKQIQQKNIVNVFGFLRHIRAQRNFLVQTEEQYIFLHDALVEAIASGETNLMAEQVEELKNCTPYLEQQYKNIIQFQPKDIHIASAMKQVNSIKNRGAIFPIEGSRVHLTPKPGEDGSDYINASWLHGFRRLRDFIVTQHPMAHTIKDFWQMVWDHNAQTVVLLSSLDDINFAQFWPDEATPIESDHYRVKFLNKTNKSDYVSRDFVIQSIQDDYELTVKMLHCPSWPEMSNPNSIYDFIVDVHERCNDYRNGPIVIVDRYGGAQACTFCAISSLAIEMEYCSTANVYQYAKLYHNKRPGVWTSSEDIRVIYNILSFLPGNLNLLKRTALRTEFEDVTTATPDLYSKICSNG
As to the kind of experiment: Dephosphorylation of phosphotyrosine peptides (malachite green), PTP99A D1D2. The settings on record: for Vmax / Kcat / Kcat/Km / Km: 0.01 µM protein; for Vmax: 25 mM citrate buffer pH 6.0, 100 mM NaCl, 2 mM DTT, 15 min at 25°C, Biomol Green, 650 nm, Michaelis-Menten fit; for Kcat / Kcat/Km / Km: 25 mM citrate pH 6.0, 15 min at 25°C, malachite green; for substrate preference: order of peptide substrates, PTP99A D1D2.
Description: as §1, §2

The target in a further experiment is T4, PTP99A D1 (Drosophila melanogaster, UniProt P35832).
T4 sequence (P35832 450-756): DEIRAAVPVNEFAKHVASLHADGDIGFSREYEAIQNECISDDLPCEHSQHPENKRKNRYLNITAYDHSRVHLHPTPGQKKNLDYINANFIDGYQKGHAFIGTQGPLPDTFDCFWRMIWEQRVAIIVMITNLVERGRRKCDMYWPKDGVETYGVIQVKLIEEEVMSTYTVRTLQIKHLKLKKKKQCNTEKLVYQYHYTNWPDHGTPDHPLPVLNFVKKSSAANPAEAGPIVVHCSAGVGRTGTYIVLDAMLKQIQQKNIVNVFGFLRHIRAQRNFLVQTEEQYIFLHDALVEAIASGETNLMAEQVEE
As to the kind of experiment: Dephosphorylation of phosphotyrosine peptides (malachite green), PTP99A D1. The settings on record: for Vmax / Kcat / Kcat/Km / Km: 0.01 µM protein; for Vmax: 25 mM citrate buffer pH 6.0, 100 mM NaCl, 2 mM DTT, 15 min at 25°C, Biomol Green, 650 nm, Michaelis-Menten fit; for Kcat / Kcat/Km / Km: 25 mM citrate pH 6.0, 15 min at 25°C, malachite green; for peptide preference: order of peptide substrates.
Description: as §1, §2

Like-named read-outs stand apart in the source and are kept apart here. Square brackets hold non-standard residues; d marks the D form. Ends that are not written are not given here. Peptide text beside a SMILES is read from it. pY = N[C@@H](Cc1ccc(OP(=O)(O)O)cc1)C(=O)O

In the case of `CC(C)C[C@H](NC(=O)[C@H](C)NC(=O)CNC(=O)[C@H](Cc1ccc(OP(=O)(O)O)cc1)NC(=O)[C@H](CC(=O)O)NC(=O)[C@@H]1CCCN1C(=O)[C@H](CCC(=O)O)NC(=O)[C@H](C)NC(=O)[C@@H](N)[C@@H](C)O)C(=O)N[C@@H](Cc1ccc(O)cc1)C(=O)N[C@@H](CCC(=O)O)C(=O)O` [Cuticle peptide] (H-TAEPD[pY]GALYE-OH), the Michaelis-Menten constant (Km) was 105 ± 12.4 µM on DLAR D1D2 and 162 ± 13.8 µM at DLAR D1 D2HSS.
On to “CDDS[pY]FGNKC (cysteine pairing not given here) [Myospheroid peptide, phosphotyrosine peptide CDDSpYFGNKC from PeptideMine server, obtained from GL Bioscience, >95% pure]”, for which the maximal velocity (Vmax) stood at 13.86 ± 0.39 µmol/min/mg at DLAR D1D2, 3.11 ± 0.12 µmol/min/mg at DLAR D1 D2HSS, 1.09 ± 0.03 µmol/min/mg on PTP99A D1D2 and 2.72 ± 0.13 µmol/min/mg at PTP99A D1. In addition, the Kcat on DLAR D1D2 is 16.53 ± 0.47 s⁻¹; on DLAR D1 D2HSS, 3.7 ± 0.15 s⁻¹; on PTP99A D1D2, 1.35 ± 0.03 s⁻¹; at PTP99A D1, 1.81 ± 0.08 s⁻¹. Further, the Kcat/Km at DLAR D1D2 is given as 14.28 ± 0.05 x 10^4 sec^-1M^-1; at DLAR D1 D2HSS, 5.79 ± 0.08 x 10^4 sec^-1M^-1; on PTP99A D1D2 it was 44.1 ± 1.22 x 10^4 sec^-1M^-1; on PTP99A D1 it was 20.40 ± 0.59 x 10^2 sec^-1M^-1. The Km on DLAR D1D2 (read-out: Km) turned out to be 116 ± 8.69 µM; at DLAR D1 D2HSS (read-out: Km), 63.9 ± 7.99 µM; at PTP99A D1D2, 3.06 ± 0.36 µM; on PTP99A D1, 887 ± 102 µM. In addition, the substrate preference result was “Cuticle peptide>Insulin receptor peptide>Nervous fingers peptide>Abelson peptide>Myospheroid peptide” on DLAR D1D2 and “Insulin Receptor peptide>Cuticle peptide>Myospheroid>Abelson peptide>Nervous fingers peptide” on PTP99A D1D2. Further, at PTP99A D1 (PTP99A D1 domain), the peptide preference result is “Abelson peptide>Cuticle peptide>Nervous fingers peptide>Myospheroid peptide>Insulin receptor peptide”.
For the molecule “RDDT[pY]TAHAG [Abelson peptide, phosphotyrosine peptide RDDTpYTAHAG from PeptideMine server, obtained from GL Bioscience, >95% pure]”, the maximal velocity (Vmax) at DLAR D1D2 was 3.39 ± 0.19 µmol/min/mg; on DLAR D1 D2HSS, 0.6 ± 0.01 µmol/min/mg; on PTP99A D1D2 it was 2.59 ± 0.07 µmol/min/mg; at PTP99A D1, 0.83 ± 0.05 µmol/min/mg. Further, the Kcat at DLAR D1D2 worked out at 4.05 ± 0.22 s⁻¹; on DLAR D1 D2HSS, 0.72 ± 0.01 s⁻¹; at PTP99A D1D2, 3.21 ± 0.08 s⁻¹; at PTP99A D1, 0.55 ± 0.04 s⁻¹. Besides, the Kcat/Km on DLAR D1D2 is listed as 17.96 ± 0.16 x 10^4 sec^-1M^-1; on DLAR D1 D2HSS it was 5.82 ± 0.07 x 10^4 sec^-1M^-1; on PTP99A D1D2 it was 19.97 ± 0.15 x 10^4 sec^-1M^-1; on PTP99A D1, 45.19 ± 0.29 x 10^2 sec^-1M^-1. Also, the Km worked out at 22.6 ± 4.88 µM at DLAR D1D2 (read-out: Km), 12.4 ± 1.07 µM at DLAR D1 D2HSS (read-out: Km), 16.3 ± 1.55 µM at PTP99A D1D2 and 122 ± 26.6 µM on PTP99A D1. Moreover, the substrate preference entry was “Cuticle peptide>Insulin receptor peptide>Nervous fingers peptide>Abelson peptide>Myospheroid peptide” on DLAR D1D2 and “Insulin Receptor peptide>Cuticle peptide>Myospheroid>Abelson peptide>Nervous fingers peptide” at PTP99A D1D2. Moreover, the “difference between the most and least preferred substrate (kcat/Km)” value at PTP99A D1 (PTP99A D1 domain, between Abelson peptide and Insulin Receptor peptides) was about 3000 M⁻¹ s⁻¹. Besides, the peptide preference entry on PTP99A D1 (PTP99A D1 domain) is “Abelson peptide>Cuticle peptide>Nervous fingers peptide>Myospheroid peptide>Insulin receptor peptide”.
Consider “VIGD[pY]VCRLCK (cysteine pairing not given here) [Nervous Fingers peptide, phosphotyrosine peptide VIGDpYVCRLCK from PeptideMine server, obtained from GL Bioscience, >95% pure]”, for which the maximum rate (Vmax) at DLAR D1D2 came out at 12.41 ± 0.68 µmol/min/mg; on DLAR D1 D2HSS, 7.9 ± 0.35 µmol/min/mg; on PTP99A D1D2 it was 8.89 ± 0.38 µmol/min/mg; at PTP99A D1, 4.42 ± 0.14 µmol/min/mg. Moreover, the Kcat at DLAR D1D2 came to 14.79 ± 0.81 s⁻¹; on DLAR D1 D2HSS, 9.42 ± 0.42 s⁻¹; at PTP99A D1D2, 11.01 ± 0.46 s⁻¹; on PTP99A D1 it was 2.94 ± 0.10 s⁻¹. Moreover, the Kcat/Km on DLAR D1D2 is recorded as 19.59 ± 0.11 x 10^4 sec^-1M^-1; at DLAR D1 D2HSS it was 7.02 ± 0.07 x 10^4 sec^-1M^-1; at PTP99A D1D2, 6.12 ± 0.12 x 10^4 sec^-1M^-1; on PTP99A D1, 21.61 ± 0.24 x 10^2 sec^-1M^-1. For the same molecule, the Michaelis-Menten constant (Km) amounted to 75.5 ± 12.5 µM on DLAR D1D2 (read-out: Km), 134 ± 14.9 µM at DLAR D1 D2HSS (read-out: Km), 180 ± 15 µM on PTP99A D1D2 and 1360 ± 94.7 µM at PTP99A D1. In addition, the substrate preference entry on DLAR D1D2 is “Cuticle peptide>Insulin receptor peptide>Nervous fingers peptide>Abelson peptide>Myospheroid peptide”; on PTP99A D1D2 it was “Insulin Receptor peptide>Cuticle peptide>Myospheroid>Abelson peptide>Nervous fingers peptide”. For the same molecule, the peptide preference result at PTP99A D1 (PTP99A D1 domain) was “Abelson peptide>Cuticle peptide>Nervous fingers peptide>Myospheroid peptide>Insulin receptor peptide”.

Usually Km stands for the substrate concentration at which the rate is half of its maximum. A word on the Vmax: it is the rate approached at saturating substrate.
